Laboratory results from PubChem BioAssay AID1963869 (Molecular Pharmacology Branch, DTP, NCI, 2024).

Test system: KRAS patient-derived spheroids with HUVEC/MSC, viability
Assay: Anticancer human tumor 323965-272-R-J2-PDC patient-derived pancreatic carcinoma cell line growth inhibition [KRAS2]
Conditions: for IC50: curve of first compound; for viability, T/C: stronger effect = lower value
In short: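 KRAS-mutant tumor cells were grown as spheroids with HUVEC endothelial cells and human MSCs as stroma. Targeted agents were tested alone and with KRAS pathway inhibitors. Doses started at or near clinical Cmax, or 10 microM, descending half-log.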

[1] = second compound 0.1 µM, first compound 0.01 µM
[2] = second compound 0.1 µM, first compound 0.0316 µM
[3] = second compound 0.1 µM, first compound 0.1 µM
[4] = second compound 0.1 µM, first compound 0.316 µM
[5] = second compound 0.1 µM, first compound 1 µM
[6] = second compound 0.1 µM, first compound 3.16 µM
[7] = second compound 0.316 µM, first compound 0.01 µM
[8] = second compound 0.316 µM, first compound 0.0316 µM
[9] = second compound 0.316 µM, first compound 0.1 µM
[10] = second compound 0.316 µM, first compound 0.316 µM
[11] = second compound 0.316 µM, first compound 1 µM
[12] = second compound 0.316 µM, first compound 3.16 µM
[13] = second compound 1 µM, first compound 0.01 µM
[14] = second compound 1 µM, first compound 0.0316 µM
[15] = second compound 1 µM, first compound 0.1 µM
[16] = second compound 1 µM, first compound 0.316 µM
[17] = second compound 1 µM, first compound 1 µM
[18] = second compound 1 µM, first compound 3.16 µM
[19] = second compound 3.16 µM, first compound 0.01 µM
[20] = second compound 3.16 µM, first compound 0.0316 µM
[21] = second compound 3.16 µM, first compound 0.1 µM
[22] = second compound 3.16 µM, first compound 0.316 µM
[23] = second compound 3.16 µM, first compound 1 µM
[24] = second compound 3.16 µM, first compound 3.16 µM
[25] = second compound 10 µM, first compound 0.01 µM
[26] = second compound 10 µM, first compound 0.0316 µM
[27] = second compound 10 µM, first compound 0.1 µM
[28] = second compound 10 µM, first compound 0.316 µM
[29] = second compound 10 µM, first compound 1 µM
[30] = second compound 10 µM, first compound 3.16 µM
[31] = second compound 0.1 µM, first compound 10 µM
[32] = second compound 0.316 µM, first compound 10 µM
[33] = second compound 1 µM, first compound 10 µM
[34] = second compound 3.16 µM, first compound 10 µM
[35] = second compound 10 µM, first compound 10 µM
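Also: spheroids exposed to agents for 7 days.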
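For viability, T/C in this document: 100% = DMSO vehicle control viability.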

Compound | IC50 (second compound 0.1 µM) | IC50 (second compound 0.316 µM) | IC50 (second compound 1 µM) | IC50 (second compound 3.16 µM) | IC50 (second compound 10 µM) | viability, T/C [2] | viability, T/C [3] | viability, T/C [4] | viability, T/C [5] | viability, T/C [8] | viability, T/C [9] | viability, T/C [10] | viability, T/C [11] | viability, T/C [14] | viability, T/C [15] | viability, T/C [16] | viability, T/C [17] | viability, T/C [20] | viability, T/C [21] | viability, T/C [22] | other results
CC1COCCN1c1cc(-c2ccnn2C)c2ccnc(-c3ccn[nH]3)c2n1 (stereo not given) + CC1OCC2(CCN(c3cnc(Sc4ccnc(N)c4Cl)c(N)n3)CC2)C1N | 15.3 nM | < 10 nM | < 10 nM | < 10 nM | < 10 nM | 32.2% | 17.7% | 15% | 13.5% | 23.2% | 12.3% | 10.7% | 10.5% | 13% | 7.36% | 6.29% | 5.53% | 7.07% | 4.72% | 4.25% | viability, T/C [1]: 60.7%; viability, T/C [6]: 12.9%; viability, T/C [7]: 43.1%; viability, T/C [12]: 9.88%; viability, T/C [13]: 35.1%; viability, T/C [18]: 3.23%; viability, T/C [19]: 13.3%; viability, T/C [23]: 2.21%; viability, T/C [24]: 2.21%; viability, T/C [25]: 7.99%; viability, T/C [26]: 5.12%; viability, T/C [27]: 4.05%; viability, T/C [28]: 3.27%; viability, T/C [29]: 1.9%; viability, T/C [30]: 1.31%
CCN1CCN(Cc2ccc(Nc3ncc(F)c(-c4cc(F)c5nc(C)n(C(C)C)c5c4)n3)nc2)CC1 + CC1OCC2(CCN(c3cnc(Sc4ccnc(N)c4Cl)c(N)n3)CC2)C1N | 25.2 nM | 14.6 nM | < 3.16 nM | < 3.16 nM | < 3.16 nM | 45.8% | 46.4% | 42% | 49.7% | 42.1% | 36.8% | 35.5% | 42.3% | 26.2% | 23.4% | 26.1% | 35.3% | 14.9% | 14.7% | 17.9% | viability, T/C (second compound 0.1 µM, first compound 0.00316 µM): 72.6%; viability, T/C [1]: 66.4%; viability, T/C (second compound 0.316 µM, first compound 0.00316 µM): 51.3%; viability, T/C [7]: 56.5%; viability, T/C (second compound 1 µM, first compound 0.00316 µM): 38.5%; viability, T/C [13]: 37.7%; viability, T/C (second compound 3.16 µM, first compound 0.00316 µM): 18.8%; viability, T/C [19]: 15.7%; viability, T/C [23]: 29.5%; viability, T/C (second compound 10 µM, first compound 0.00316 µM): 13.7%; viability, T/C [25]: 16.3%; viability, T/C [26]: 13.9%; viability, T/C [27]: 10.5%; viability, T/C [28]: 14.5%; viability, T/C [29]: 25.7%
CCNC(=O)CC1N=C(c2ccc(Cl)cc2)c2cc(OC)ccc2-n2c(C)nnc21 (stereo not given) + CC1OCC2(CCN(c3cnc(Sc4ccnc(N)c4Cl)c(N)n3)CC2)C1N | 244 nM | 146 nM | < 31.6 nM | < 31.6 nM | < 31.6 nM | 74.6% | 63.5% | 44.9% | 36.3% | 63.3% | 57.8% | 34.4% | 28% | 45.6% | 35.5% | 27.2% | 22.2% | 16.2% | 20.8% | 14.3% | viability, T/C [6]: 28.6%; viability, T/C [31]: 27.4%; viability, T/C [12]: 25.2%; viability, T/C [32]: 22.6%; viability, T/C [18]: 11.9%; viability, T/C [33]: 7.8%; viability, T/C [23]: 13.1%; viability, T/C [24]: 6.89%; viability, T/C [34]: 4.84%; viability, T/C [26]: 16.6%; viability, T/C [27]: 16.3%; viability, T/C [28]: 14.9%; viability, T/C [29]: 8.18%; viability, T/C [30]: 6.22%; viability, T/C [35]: 3.88%
Cn1nccc1Nc1nccc(-c2cc3c(s2)C(C)(C)N(CCN2CCOCC2)C3=O)n1 + CC1OCC2(CCN(c3cnc(Sc4ccnc(N)c4Cl)c(N)n3)CC2)C1N | 806 nM | 102 nM | < 31.6 nM | < 31.6 nM | < 31.6 nM | 66.1% | 67.3% | 55.8% | 51% | 56% | 50.3% | 36.2% | 33.1% | 32.9% | 32.4% | 27.4% | 22% | 17.4% | 16% | 13.9% | viability, T/C [6]: 35.9%; viability, T/C [31]: 36.4%; viability, T/C [12]: 33.6%; viability, T/C [32]: 33.5%; viability, T/C [18]: 23.3%; viability, T/C [33]: 22.9%; viability, T/C [23]: 14.7%; viability, T/C [24]: 14.7%; viability, T/C [34]: 18.8%; viability, T/C [26]: 14.4%; viability, T/C [27]: 12.8%; viability, T/C [28]: 9.42%; viability, T/C [29]: 8.83%; viability, T/C [30]: 9.11%; viability, T/C [35]: 12.2%
